Test results taken from ChEMBL document CHEMBL1221397, “Bioassay-guided isolation of the antidiabetic principle from Sorbus decora (Rosaceae) used traditionally by the Eeyou Istchee Cree First Nations” (J Nat Prod, 2010).

Tested on: C2C12
Assay: Induction of [3H]2-deoxy-D-glucose uptake in mouse C2C12 cells after 18 hrs by scintillation counting
Format: functional, cell-based

- EC50: 1470 nM
Compound: C=C(C)[C@@H]1CC[C@]2(CO)CC[C@]3(C)[C@H](CC[C@@H]4[C@@]5(C)CC[C@H](OC(=O)/C=C/c6ccc(O)c(O)c6)[C@@](C)(CO)[C@@H]5CC[C@]43C)[C@@H]12
